{"source": "paper PMC10776687", "about": "(Nature Communications, 2024)", "assay_type_in_all_cases": "cell-based", "key": {"[1]": {"target": "T1, human serotonin transporter (SERT) (Homo sapiens, UniProt P31645)", "T1 construct": "gene SLC6A4; human WT SERT, N-terminal eYFP fusion, stably expressed in HEK293 cells", "T1 sequence (P31645 whole entry, the tested form may be a part)": "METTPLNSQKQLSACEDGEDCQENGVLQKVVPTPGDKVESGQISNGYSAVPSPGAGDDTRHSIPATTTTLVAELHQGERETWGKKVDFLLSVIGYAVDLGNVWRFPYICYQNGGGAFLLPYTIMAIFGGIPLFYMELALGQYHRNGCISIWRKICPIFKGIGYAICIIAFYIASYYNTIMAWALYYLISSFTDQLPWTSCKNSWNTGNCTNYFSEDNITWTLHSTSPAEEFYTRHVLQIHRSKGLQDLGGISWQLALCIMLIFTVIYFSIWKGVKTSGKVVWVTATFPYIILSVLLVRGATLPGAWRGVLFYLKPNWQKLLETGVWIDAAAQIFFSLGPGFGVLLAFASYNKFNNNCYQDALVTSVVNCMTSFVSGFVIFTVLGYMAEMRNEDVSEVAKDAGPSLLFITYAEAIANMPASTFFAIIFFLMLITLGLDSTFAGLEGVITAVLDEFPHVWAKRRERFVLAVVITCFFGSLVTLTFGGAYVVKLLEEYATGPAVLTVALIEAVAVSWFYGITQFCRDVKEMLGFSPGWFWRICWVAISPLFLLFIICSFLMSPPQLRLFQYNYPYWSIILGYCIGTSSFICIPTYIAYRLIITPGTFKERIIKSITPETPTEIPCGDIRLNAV", "experiment": "[3H]5HT uptake inhibition in HEK293 cells; whole-cell patch clamp (partial substrate, kon/koff)"}, "[2]": {"target": "T1, human serotonin transporter (SERT)", "experiment": "[3H]5HT uptake kinetics (Km/Vmax) in HEK293 cells at the compound's IC50, n = […]"}, "[3]": {"target": "T1, human serotonin transporter (SERT)", "experiment": "[3H]5HT uptake inhibition in HEK293 cells; whole-cell patch clamp (almost pure inhibitor)"}, "[4]": {"target": "T1, human serotonin transporter (SERT)", "experiment": "[3H]5HT uptake inhibition in HEK293 cells; whole-cell patch clamp (partial substrate, kon/koff); efflux"}}}
{"compound": "NCCCCc1c[nH]c2ccc(O)cc12", "note": "[B-5HT, butyl (B)-5HT]", "values": [{"measurement": "IC50", "setting": "[1]", "value": 270, "unit": "nM"}]}
{"compound": "COC(=O)[C@H]1[C@@H](OC(=O)c2ccccc2)C[C@@H]2CC[C@H]1N2C", "note": "[COC, cocaine]", "values": [{"measurement": "IC50", "setting": "[2]", "value": 4000, "unit": "nM"}]}
{"compound": "CC[C@H]1C[C@@H]2C[C@H]3c4[nH]c5ccc(OC)cc5c4CCN(C2)[C@@H]13", "note": "[IBO, ibogaine]", "values": [{"measurement": "IC50", "setting": "[2]", "value": 24000, "unit": "nM"}]}
{"compound": "NCc1c[nH]c2ccc(O)cc12", "note": "[M-5HT]", "values": [{"measurement": "IC50", "setting": "[3]", "value": 79300, "unit": "nM"}]}
{"compound": "NCCCc1c[nH]c2ccc(O)cc12", "note": "[P-5HT, propyl (P)-5HT]", "values": [{"measurement": "IC50", "setting": "[4]", "value": 590, "unit": "nM"}]}
